Patent publication US8535897B2, “Assays for non-apoptotic cell death and uses thereof” (The Trustees of Columbia University in the City of New York, priority 2006, dated 2013)

How the values were obtained:
Type in all cases: cell-based, human
[1] = tested on: BJ-TERT/LT/ST/RASV12 cells; assay: Annexin V staining; conditions: erastin 9 μM; camptothecin 1 μM
Procedure: The percentage of cells in the indicated M1 region were 6%, 6%, and 38% in untreated, erastin-treated (9 μM), and camptothecin-treated (1 μM), respectively.

[2] = tested on: BJ-TERT/LT/ST/RASV12 cells; assay: Nuclear morphology, fluorescence microscopy (Hoechst 33342)
Procedure: DNA was stained used Hoechst 33342.
To characterize the type of cell death induced by erastin, the effect of erastin was tested alongside camptothecin and staurosporine, which induce apoptotic cell death^39. Apoptosis is characterized by alterations in nuclear morphology, including pyknosis, karyorhexis and margination of chromatin^93. Nuclear morphology of camptothecin-treated and erastin-treated BJ-TERT/LT/ST/RAS^V12 cells was monitored using fluorescence microscopy. […] Apoptosis-inducing compounds (staurosporine and/or camptothecin) were tested alongside erastin in all of these assays to confirm the functionality of the assay. […] Therefore, in certain aspects the invention provides a genotype-selective anti-tumor agent which induces cell death via a non-apoptotic mechanism of oxidative cell death.

PARP1 = PARP1 cleavage, western blot; conditions: BJ-TERT/LT/ST/RAS^V12; staurosporine 1 μM 6 h, camptothecin 1 μM 18 h, erastin 20 μg/mL
Procedure: BJ-TERT/LT/ST/RAS^V12 tumor cells were seeded in six-well dishes, incubated overnight at 37° C. with 5% CO2 and were treated with nothing (NT), staurosporine (ST, 1 μM) for 6 h, camptothecin (C, 1 μM) for 18 h, or erastin (20 μg/mL) for the indicated time, lysed and analyzed by western blot with an anti-PARP1 antibody. A relatively high concentration of erastin was used to ensure loss of PARP cleavage was not due to a concentration-dependent effect.
For western blots, medium was aspirated, and each dish was washed twice with 10 mL of ice-cold PBS. Cells were lysed with 200 μL of buffer (50 mM HEPES, 40 mM NaCl, 2 mM EDTA, 0.5% Triton-X, 1.5 mM sodium orthovanadate, 50 mM NaF, 10 mM Na Pyrophosphate, 10 mM Na B-glycerophosphate and protease inhibitor tablet, pH 7.4). […]

cytochrome c = assay: Cytochrome c release from mitochondria; conditions: BJ-TERT/LT/ST/RAS^V12; staurosporine 1 μM or erastin 20 μg/mL for 6 h
Procedure: BJ-TERT/LT/ST/RAS^V12 cells were seeded in polystyrene 100×20 mm dishes in 10 ml media. After overnight incubation at 37° C. with 5% CO2, the cells were treated with nothing (NT), staurosporine (ST, 1 μM) or erastin (20 μg/mL) for 6 h, washed with 10 mL ice-cold PBS and lysed by passage through a 25-gauge needle (five strokes). Cell lysates were centrifuged at 1850 rpm for 5 min at 4° C. to remove the nuclear fraction. Mitochondria were removed from the soluble cytosolic fraction by pelleting at 10,000 rpm. Supernatant and mitochondrial pellets were solubilized in SDS-PAGE loading buffer and analyzed by western blot using anti-cytochrome c and pan-VDAC antibodies and IR-dye-linked secondary antibodies. […] Fluorescence was detected on a LI-COR Odyssey infrared scanner.
(a) BJ-TERT/LT/ST/RAS^V12 cells were treated with 9 μM erastin A1 for the indicated length of time, and the number of viable cells determined. […] Red fluorescence resulting from reduction of alamar blue was detected on a Victor3 platereader. […] (e) The number of viable cells was quantified under each condition using a hemacytometer. […] BJ-TERT/LT/ST/RAS^V12 (shown in histogram plots, and in line graph as dark diamonds) or BJ-TERT cells (shown in line graph only, light circles) were treated with 4.6-μM erastin A1 and the level of intracellular oxidative species determined. […]

Row | Compound | percentage of cells in the M1 region (Annexin V staining) [1] [%] | fragmented nuclei, of total nuclei ([2]; Hoechst 33342) | nuclear morphology ([2]; fluorescence microscopy) | PARP1 cleavage (PARP1) | cytochrome c release from mitochondria (cytochrome c)
1 | CC[C@@]1(O)C(=O)OCc2c1cc1n(c2=O)Cc2cc3ccccc3nc2-1 [camptothecin] | 38 | 10%-20% | karyorhexis and margination of chromatin were visible | degraded | –
2 | CN[C@@H]1C[C@H]2O[C@@](C)([C@@H]1OC)n1c3ccccc3c3c4c(c5c6ccccc6n2c5c31)C(=O)NC4 [staurosporine] | – | – | – | – | released from mitochondria
